Numbers after ± are expanded uncertainties.
Legend:
[1] = refractive index (Na D-line) (dimensionless); xn = mol fraction of the nth substance listed; conditions: 100 kPa, Liquid, Standard Abbe refractometry, x2 = 0
[2] = xn = mol fraction of the nth substance listed; conditions: 100 kPa, Liquid, x2 = 0; for viscosity: Concentric cylinders viscometry; for mass density: Vibrating tube method

Compound | refractive index ([1]; 288.15 K) | refractive index ([1]; 293.15 K) | refractive index ([1]; 298.15 K) | refractive index ([1]; 303.15 K) | refractive index ([1]; 308.15 K) | refractive index ([1]; 313.15 K) | refractive index ([1]; 318.15 K) | refractive index ([1]; 323.15 K) | refractive index ([1]; 328.15 K) | refractive index ([1]; 333.15 K) | viscosity ([2]; 288.15 K) | mass density ([2]; 288.15 K) | viscosity ([2]; 293.15 K) | mass density ([2]; 293.15 K) | viscosity ([2]; 298.15 K) | mass density ([2]; 298.15 K) | viscosity ([2]; 303.15 K) | mass density ([2]; 303.15 K) | viscosity ([2]; 308.15 K) | mass density ([2]; 308.15 K) | also measured
CCC(C)=O [butanone] + c1ccncc1 | 1.38157 ± 0.00035 | 1.37901 ± 0.00035 | 1.37642 ± 0.00035 | 1.37386 ± 0.00035 | 1.37125 ± 0.00035 | 1.36857 ± 0.00035 | 1.36589 ± 0.00035 | 1.36315 ± 0.00035 | 1.36042 ± 0.00035 | 1.35746 ± 0.00035 | 0.4308 ± 0.0065 mPa·s | 810.067 ± 0.2 kg/m3 | 0.4152 ± 0.0064 mPa·s | 804.863 ± 0.2 kg/m3 | 0.3992 ± 0.0062 mPa·s | 799.632 ± 0.21 kg/m3 | 0.3826 ± 0.0061 mPa·s | 794.371 ± 0.21 kg/m3 | 0.3665 ± 0.0059 mPa·s | 789.078 ± 0.21 kg/m3 | viscosity ([2]; 313.15 K): 0.3499 ± 0.0058 mPa·s; mass density ([2]; 313.15 K): 783.752 ± 0.21 kg/m3; viscosity ([2]; 318.15 K): 0.3336 ± 0.0057 mPa·s; mass density ([2]; 318.15 K): 778.389 ± 0.21 kg/m3; viscosity ([2]; 323.15 K): 0.3174 ± 0.0055 mPa·s; mass density ([2]; 323.15 K): 772.985 ± 0.21 kg/m3; viscosity ([2]; 328.15 K): 0.3001 ± 0.0054 mPa·s; mass density ([2]; 328.15 K): 767.539 ± 0.21 kg/m3; viscosity ([2]; 333.15 K): 0.2829 ± 0.0052 mPa·s; mass density ([2]; 333.15 K): 762.048 ± 0.21 kg/m3
CCC(C)=O [butanone] + OCCCO | 1.38157 ± 0.00035 | 1.37901 ± 0.00035 | 1.37642 ± 0.00035 | 1.37386 ± 0.00035 | 1.37125 ± 0.00035 | 1.36857 ± 0.00035 | 1.36589 ± 0.00035 | 1.36315 ± 0.00035 | 1.36042 ± 0.00035 | 1.35746 ± 0.00035 | 0.4308 ± 0.0065 mPa·s | 810.067 ± 0.2 kg/m3 | 0.4152 ± 0.0064 mPa·s | 804.863 ± 0.2 kg/m3 | 0.3992 ± 0.0062 mPa·s | 799.632 ± 0.21 kg/m3 | 0.3826 ± 0.0061 mPa·s | 794.371 ± 0.21 kg/m3 | 0.3665 ± 0.0059 mPa·s | 789.078 ± 0.21 kg/m3 | viscosity ([2]; 313.15 K): 0.3499 ± 0.0058 mPa·s; mass density ([2]; 313.15 K): 783.752 ± 0.21 kg/m3; viscosity ([2]; 318.15 K): 0.3336 ± 0.0057 mPa·s; mass density ([2]; 318.15 K): 778.389 ± 0.21 kg/m3; viscosity ([2]; 323.15 K): 0.3174 ± 0.0055 mPa·s; mass density ([2]; 323.15 K): 772.985 ± 0.21 kg/m3; viscosity ([2]; 328.15 K): 0.3001 ± 0.0054 mPa·s; mass density ([2]; 328.15 K): 767.539 ± 0.21 kg/m3; viscosity ([2]; 333.15 K): 0.2829 ± 0.0052 mPa·s; mass density ([2]; 333.15 K): 762.048 ± 0.21 kg/m3

— the NIST ThermoML archive (doi:10.1016/j.fluid.2016.02.031)
